# Where “and” joins values, the source holds several entries; their conditions need not be identical. Equal values may be shown once.
# B1: PEG-ASNase: asparaginase conjugated with polyethylene glycol (PEG); sold under the name ONCASPAR by Rhône-Poulenc Rorer (conjugate, UniProt P00805 23-348, looked up)
# L-asparaginase 2: LPNITILATGGTIAGGGDSATKSNYTVGKVGVENLVNAVPQLKDIANVKGEQVVNIGSQDMNDNVWLTLAKKINTDCDKTDGFVITHGTDTMEETAYFLDLTVKCDKPVVMVGAMRPSTSMSADGPFNLYNAVVTAADKASANRGVLVVMNDTVLDGRDVTKTNTTDVATFKSVNYGPLGYIHNGKIDYQRTPARKHTSDTPFDVSKLNELPKVGIVYNYANASDLPAKALVDAGYDGIVSAGVGNGNLYKSVFDTLATAAKTGTAVVRSSRVPTGATTQDAEVDDAKYGFVASGTLNPQKARVLLQLALTQTKDPQQIQQIFNQY
# modifications: PEG conjugate (pegaspargase)
# notes: asparaginase conjugated with polyethylene glycol (PEG); sold under the name ONCASPAR by Rhône-Poulenc Rorer
# How the values were obtained:
# Type in all cases: cell-based
# [1] = tested on: HIV-RT in supernatants of HIV-1 infected CEM/0 T-cells; assay: HIV-RT ELISA in supernatants of HIV-1 infected CEM/0 T-cells; conditions: for inhibition of HIV-RT in supernatants: Experiment 8 text, day 7; for HIV-RT (negative values set to 0): Table 6, per specimen
# Experimental: The following is a general procedure for the HIV-reverse transcriptase assay:
# Materials and Methods: The cell line used for this experiment is CEM/0, a human T-cell leukemic cell line. PEG-ASNase (ONCASPAR) is provided by Rhone-Poulenc Rorer. Saquinavin (SQ) is commercially available. AZT is purchased from Sigma. […] The drug concentrations used are as follows:
# Briefly, 3×10^6 cells/ml are stimulated with PHA+ media for 48 hours at 37° C. with 5% CO2. Also, the same number of cells are incubated in PHA free media for 48 hours to serve as the negative control. At this point the cells are inoculated with the HIV-1 virus as per standard protocol. Note that in this experiment, the HIV containing supernatant from the […] healthy human peripheral mononuclear cells (PBMC) is not removed from the PHA-stimulated CEM/0 cell culture. […] These virus particles are released by already infected T-cells and/or lymph nodes of patients.
# (§1) The experimental drugs are added to the cells in the appropriate concentrations at the same time as viral inoculation or 90 minutes after the viral incubation, a time sufficient for the T-cells to be infected and start producing new HIV-1 virus particles. The control cells are resuspended in drug-free media for the duration of the exposure which lasted seven days. Aliquots of media from the control flasks only are obtained on day 5 post Rx. At day seven, three 1 ml each, aliquots of media are removed from the flasks and stored under liquid nitrogen. In addition, the remaining cells are split into three and then pelleted and stored at −80° C.
# [2] = tested on: HIV-RNA in supernatant of HIV-1 infected CEM/0 T-cells; assay: HIV-1 quantitative RNA assay (HIV-1 Monitor) in supernatants of CEM/0 T-cells; parameters: inhibition of HIV-RNA in the supernatants in comparison to untreated control / % OF CONTROL / % control: concentration or dose not given beside the values; conditions: for N*: day 7 post Rx, PEG 0.400 IU/ml, SAQ 25 uM, AZT 1 uM, combinations PEG 0.233 IU/ml + SAQ 14.52 uM; for inhibition of HIV-RNA in the supernatants in comparison to untreated control: Experiment 6 text; for % control / MEAN N: Table 3; for Log 10 N: Table 3, per flask
# Excerpt: It should be noted that “PEG” in Table 3 represents PEG-ASNase.
# (§2) Materials and Methods: The cell line used for these studies is CEM/0, a human T-cell leukemic cell line. PEG-ASNase (ONCASPAR) is provided by Rhone-Poulenc Rorer. Saquinavin is commercially available. AZT is purchased from Sigma. MISID, a ribonucleotide reductase inhibitor, is as described in Nandy P, Lien E J, Avramis V I, Med. Chem. Res. 1995, 5:664-679. RPMI-1640 media (Irvine Scientific, Irvine, Calif.), is enriched with 10% Fetal Calf Serum (Gemini Biosource, Calabasas, Calif.), 5% 1M Hepes Buffer solution and 5% Non-essential amino acids (Irvine Scientific, Irvine, Calif.). The drug concentrations used are as follows:
# Briefly, 3×10^6 cells/ml are stimulated with PHA+ media for 48 hours at 37° C. with 5% CO2. Also, the same number of cells are incubated in PHA free media for 48 hours to serve as the negative control. At this point the cells are inoculated with the HIV-1 virus as per standard protocol. Note that in this experiment, the HIV containing supernatant from the PHA-stimulated healthy human peripheral mononuclear cells (PBMC) is not removed from the PHA-stimulated CEM/0 cell culture. […] These virus particles are continuously released by already infected T-cells and/or lymph nodes of patients.
# as §1, with “C. Supernatant specimens are obtained form these T-cell cultures and are frozen at −80° C. The samples produced from this experiment are itemized. The cell pellets of the cellular cultures (see Experiment 9) from the 90 minute viral incubation flasks are assayed for HIV-RNA quantitative assay using a kit for the assay, non-radioactive. […] The standard curve is determined and the HIV-RNA levels for the experimental samples are calculated and reported previously.” for “C.”
# This experiment is carried out using a similar procedure, and the same concentrations of materials as in Experiment 10, however the exposure of HIV-RNA in T-cell supernatants to a combination of PEG-ASNase, Saquinavir, AZT and 3TC is measured. It should be noted that “PEG” in Table 10 represents PEG-ASNase.
# [3] = tested on: HIV-RNA in HIV-1 infected CEM/0 T-cell pellets; assay: HIV-1 quantitative RNA assay (HIV-1 Monitor) in CEM/0 T-cell pellets; conditions: for mean, X3: Table 7; for N*: Table 7, per specimen, day 7, PEG 0.400 IU/ml, SAQ 25 uM, AZT 1 uM, MISID 0.685 uM, combinations PEG 0.233 IU/ml + SAQ 14.52 uM; for % control: Table 7 and text of Experiment 9; for Log 10 N: Table 2, per flask
# Experimental: This experiment is carried out using a similar procedure, and the same concentrations of materials as in Experiment 1, however the exposure of HIV-RNA in T-cell pellets to a combination of PEG-ASNase and Saquinavir is measured. […] It should be noted that “PEG” in Table 2 represents PEG-ASNase.
# as §2, with “The cell” for “Materials and Methods: The cell”, “inhibitor, is synthesized as indicated” for “inhibitor, is as described”, “synthesized as indicated in Nandy” for “is as described in Nandy”
# Briefly, 3×10^6 cells/ml are stimulated with PHA+ media for 48 hours at 37° C. with 5% CO2. Also, the same number of cells are incubated in PHA free media for 48 hours to serve as the negative control. At this point the cells are inoculated with the HIV-1 virus as per standard protocol. Note that in this experiment, the HIV containing supernatant from the PHA-stimulated healthy human peripheral mononuclear cells (PBMC) is not removed from the PHA-stimulated CEM/0 cell culture. […] These virus particles are released by already infected T-cells and/or lymph nodes of patients.
# as §1
# The samples produced from this experiment are itemized. The cell pellets of the cellular cultures (see Experiment 7) from the 90 minute viral incubation flasks are assayed for HIV-RNA quantitative assay using a kit for the assay, non-radioactive. The standard curve is determined and the HIV-RNA levels for the experimental samples are calculated and reported previously.
molecule,measurement,setting,value
"Cc1cn([C@H]2C[C@H](N=[N+]=[N-])[C@@H](CO)O2)c(=O)[nH]c1=O [AZT, zidovudine]",inhibition of HIV-RT in supernatants,[1],Great inhibition
same,HIV-RT (negative values set to 0),[1],0 pg/well
same,MEAN,[2]; Table 8,120691 copies/mL
same,N*,"[2]; Table 8, per specimen, 90 min viral inoculation, MISID 0.685 uM",120981 copies/mL and 121288 copies/mL and 119805 copies/mL
same,% OF CONTROL,[2]; Table 8 and Experiment 10,61.74%
same,MEAN,[2]; Table 10,1437 copies/mL
same,N*,"[2]; Table 10, per specimen, 3TC 1 uM",1203 copies/mL and 1409 copies/mL and 1700 copies/mL
same,% OF CONTROL,[2]; Table 10 and Experiment 11,32.48%
same,"mean, X3",[3],102473 copies/cell pellet
same,N*,[3],107269 copies/cell pellet and 97933 copies/cell pellet and 102217 copies/cell pellet
same,% control,[3],48%
CC(C)(C)NC(=O)[C@@H]1C[C@@H]2CCCC[C@@H]2CN1C[C@@H](O)[C@H](Cc1ccccc1)NC(=O)[C@H](CC(N)=O)NC(=O)c1ccc2ccccc2n1 [Saquinavir],inhibition of HIV-RT in supernatants,[1],Great inhibition
same,HIV-RT (negative values set to 0),[1],0 pg/well
same,inhibition of HIV-RNA in the supernatants in comparison to untreated control,[2],~68%
same,% control,[2],32.38%
same,MEAN N,[2],42100 copies/mL
same,Log 10 N,[2]; listed as SAQ,4.61 and 4.60 and 4.66
same,MEAN,[2]; Table 8,124762 copies/mL
same,N*,"[2]; Table 8, per specimen, 90 min viral inoculation, MISID 0.685 uM, listed as SAQ",122515 copies/mL and 128455 copies/mL and 123316 copies/mL
same,% OF CONTROL,[2]; Table 8 and Experiment 10,63.82%
same,MEAN,[2]; Table 10,2438 copies/mL
same,N*,"[2]; Table 10, per specimen, 3TC 1 uM, listed as SAQ",2816 copies/mL and 2375 copies/mL and 2122 copies/mL
same,% OF CONTROL,[2]; Table 10 and Experiment 11,approximately 55%
same,% OF CONTROL,"[2]; Table 10 and Experiment 11, listed as SAQ",55.08%
same,inhibition of HIV-1 RNA production in comparison with the control,[3]; Experiment 5 text,approximately 36%
same,Log 10 N,[3]; listed as SAQ,5.06 and 5.09
same,"mean, X3",[3],125628 copies/cell pellet
same,N*,[3]; listed as SAQ,138583 copies/cell pellet and 109522 copies/cell pellet and 128780 copies/cell pellet
same,% control,[3],59%
B1,HIV-RT (negative values set to 0),[1],0 pg/well
same,inhibition of HIV-RNA in the supernatants in comparison to untreated control,[2],approximately 60%
same,% control,[2],40.78%
same,MEAN N,[2],53020 copies/mL
same,Log 10 N,[2]; listed as PEG,4.71 and 4.72 and 4.73
same,MEAN,[2]; Table 8,143761 copies/mL
same,N*,"[2]; Table 8, per specimen, 90 min viral inoculation, MISID 0.685 uM, listed as PEG",147041 copies/mL and 142575 copies/mL and 141667 copies/mL
same,% OF CONTROL,[2]; Table 8 and Experiment 10,73.54%
same,MEAN,[2]; Table 10,3233 copies/mL
same,N*,"[2]; Table 10, per specimen, 3TC 1 uM, listed as PEG",3132 copies/mL and 3048 copies/mL and 3520 copies/mL
same,% OF CONTROL,[2]; Table 10 and Experiment 11,~73%
same,% OF CONTROL,"[2]; Table 10 and Experiment 11, listed as PEG",73.06%
same,Log 10 N,[3]; listed as PEG,5.26 and 5.42
same,"mean, X3",[3],173448 copies/cell pellet
same,N*,[3]; listed as PEG,183977 copies/cell pellet and 156304 copies/cell pellet and 180062 copies/cell pellet
same,% control,[3],81%
same,effect on HIV-RNA in cell pellets,"[3]; text of Experiments 5, 6 and 9",no apparent effect

# — patent US6689762B1, “Composition and methods for treatment of HIV infection” (Enzon Pharmaceuticals, Inc., priority 1998, dated 2004)
